# From patent US20240383913A1, “THIOPHENE RING COMPOUND, PREPARATION METHOD THEREFOR AND APPLICATION THEREOF” (CENTER FOR EXCELLENCE IN MOLECULAR CELL SCIENCE, CHINESE …, priority 2021, published 2024)
# How the values were obtained:
# dopamine D2 receptors = dopamine D2 receptors (Homo sapiens (Human), UniProt P14416); test: Dopamine D2 receptor β-arrestin2 BRET (recruitment); format: cell-based; conditions: D2 receptor, β-arrestin2 pathway;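 further: cells co-expressing Rluc-fused D2 receptor, GRK2 and GFP2-fused β-arrestin2, BRET read with coelenterazine 400a after adding drug over a concentration series, in duplicate wells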
# Method: To examine the downstream G protein signaling pathway mediated by dopamine D2 receptors, on the first day, a 6 cm culture dish was used for transfection with 1 μg of dopamine D2 receptors, 1 μg of Gαi1 containing a C-terminal seaweed luciferase (Gαi1-Rluc), 1 μg of Gβ3, 1 μg of Gγ9 containing C-terminal green fluorescent protein (Gγ9-GFP), and 16 μL of PEI. At the same time, in order to examine the downstream β-arrestin2 signaling pathway mediated by dopamine D2 receptors, on the first day, a 6 cm culture dish was used for transfection with 500 μg of dopamine D2 receptors containing C-terminal seaweed luciferase (D2-Rluc), 500 μg of G protein-coupled receptor kinase 2 (GRK2), 2500 μg of β-arrestin2 containing N-terminal green fluorescent protein (GFP2-ARRB2) mixed with 14 μL of PEI. The next day, the confluent cells of a 6 cm culture dish were digested and reseeded into a 96-well plate with 100 μL of culture medium added to each well. On the third day, the drugs were added for test. The 96-well plate was taken out from the cell incubator to decant the culture medium, 40 μL of the substrate coelenterazine 400a (final concentration of 5 μM) was added to each well, and then 20 μL of different drugs were added sequentially from left to right to ensure that the final concentration of the drug decreased gradually from bottom to top, with two replicates per treatment. Finally, the prepared samples were loaded on machine for test. The machine readout value reflected the recruitment of β-arrestin2 to the membrane or the dissociation of G protein trimer. The former indicated the degree of activation of the β-arrestin2 signaling pathway downstream of the dopamine D2 receptors, and the latter indicated the degree of activation of the G protein signaling pathway downstream of the dopamine D2 receptors.
# [1] = system: restraint-induced depression-like behaviors; test: Tail suspension test after 5-hour restraint; format: in vivo, C57B6 male mice; conditions: for Immobility time (seconds), tail suspension test: 5 hour restraint
# Method: The experimental animals were C57B6 male mice, n=8 in each group. 5-hour restraint were used to develop depression-like behavioral representations of the mice, then the effects of the compounds on their “depression-like” behaviors were measured according to behavioral performance in tail suspension test and forced swimming test. The specific experimental procedures were as follows: Firstly, the mice were restrained using a mouse fixator for tail vein injection. During the restraint process, all movement abilities of the mice were restricted under the condition of introducing minimal pain to the mice. Compounds were administered intraperitoneally twice, before and after restraint, respectively. After compound administration, the mice returned to the cage to recover for 30 minutes. After 30 minutes recovery, the mice in different groups were subjected to tail suspension test or forced swimming test to measure their “depression-like” behaviors.
# Tail suspension test: mouse tails were fixed a cantilever arm on an iron rack using adhesive tape, and the mouse was maintained in a suspension position for 6 minutes. The first 2 minutes were the adaptation period and no data collection was performed. Subsequently, the mouse's immobility behavior was recorded intermittently for the remaining 4 minutes. The duration of immobility was measured to assess the level of behavioral despair in the mice. Data statistics were performed using Student-t-test analysis, *p<0.05, ** p<0.01, *** p<0.001, **** p<0.0001.
# [2] = system: restraint-induced depression-like behaviors; test: Forced swimming test after 5-hour restraint; format: in vivo, C57B6 male mice
# Method: The experimental animals were C57B6 male mice, n=8 in each group. 5-hour restraint were used to develop depression-like behavioral representations of the mice, then the effects of the compounds on their “depression-like” behaviors were measured according to behavioral performance in tail suspension test and forced swimming test. The specific experimental procedures were as follows: Firstly, the mice were restrained using a mouse fixator for tail vein injection. During the restraint process, all movement abilities of the mice were restricted under the condition of introducing minimal pain to the mice. Compounds were administered intraperitoneally twice, before and after restraint, respectively. After compound administration, the mice returned to the cage to recover for 30 minutes. […]
# Forced swimming test: the mice were placed in a 5 L glass beaker filled with water, with the water level at 15 cm height, and the mice were forced to swim continuously in the beaker for 6 minutes. […] The duration of the immobility behavior was recorded intermittently for the remaining 4 minutes, and the immobility behavior of the mice was defined as: the mice float passively on the surface of the water without movement, with only small local movements required to maintain afloat. The duration of this immobility was measured to assess the level of behavioral despair in the mice. […]
# Chain of dopamine D2 receptors (P14416 whole entry, the tested form may be a part): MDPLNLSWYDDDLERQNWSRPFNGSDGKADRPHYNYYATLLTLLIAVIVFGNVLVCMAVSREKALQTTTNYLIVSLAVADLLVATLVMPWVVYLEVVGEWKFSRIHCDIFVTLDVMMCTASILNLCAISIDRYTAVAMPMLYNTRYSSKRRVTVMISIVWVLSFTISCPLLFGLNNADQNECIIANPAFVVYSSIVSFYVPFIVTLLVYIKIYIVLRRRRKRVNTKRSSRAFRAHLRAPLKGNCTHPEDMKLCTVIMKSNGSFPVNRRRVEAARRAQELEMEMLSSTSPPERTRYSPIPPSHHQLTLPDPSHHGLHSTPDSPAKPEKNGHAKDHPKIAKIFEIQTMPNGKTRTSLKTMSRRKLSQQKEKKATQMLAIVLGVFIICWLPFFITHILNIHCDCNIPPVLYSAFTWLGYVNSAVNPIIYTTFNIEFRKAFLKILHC
compound,measurement,setting,value
"CN(C)C(=O)N[C@H]1CC[C@H](CCN2CCN3c4cccc5scc(c45)CC3C2)CC1 (single isomer, unassigned; (-)) [(−)-I-27]",β-arrestin2 BRET (Emax %),dopamine D2 receptors,(54.79%)
same,EC50,dopamine D2 receptors; read-out: β-arrestin2 BRET EC50,10.6 nM
same,Inhibition of restraint-induced depression-like behaviors,"[1]; 0.1 mg/kg and 0.025 mg/kg i.p., tail suspension and forced swimming tests",significantly inhibit
same,"Immobility time (seconds), tail suspension test",[1]; (−)-I-27 0.025 mg/kg i.p.,87.04 ± 7.69 s
same,"Immobility time (seconds), tail suspension test",[1]; (−)-I-27 0.1 mg/kg i.p.,54.13 ± 6.99 s
same,"Immobility time (seconds), forced swimming test",[2]; (−)-I-27 0.025 mg/kg i.p.,91.83 ± 6.80 s
same,"Immobility time (seconds), forced swimming test",[2]; (−)-I-27 0.1 mg/kg i.p.,56.89 ± 4.80 s
